According to patent US11634443B2, “Treprostinil prodrugs” (United Therapeutics Corporation, priority 2019, dated 2023):
Where two headings read alike, the source gives them in different places.

What was measured:
[1] = Stability and formation of treprostinil in rat liver microsomes; details: male, Sprague-Dawley, pH 7.4
Method: (§1) Mixed-gender human liver microsomes, male Sprague-Dawley rat liver microsomes, and male Beagle dog liver microsomes were purchased from XenoTech. The reaction mixture, minus NADPH, was prepared as described below. […] An aliquot of the reaction mixture (without cofactor) was equilibrated in a shaking water bath at 37° C. for 5 minutes. The reaction was initiated by the addition of cofactor, and the mixture was incubated in a shaking water bath at 37° C. Aliquots (200 μL) were withdrawn at 0, 10, 20, 30, and 60 minutes. Test article samples were immediately combined with 400 μL of ice-cold acetonitrile (ACN) to terminate the reaction. […] The samples were then mixed and centrifuged to precipitate proteins. Aliquots of the supernatant were removed, diluted 1:1 into distilled water containing internal standard, and analyzed by LC-MS/MS against calibration standards prepared in a matched matrix. All samples were analyzed for the dosed prodrugs as well as the drug, treprostinil. The test article concentration was compared to the concentration at time 0 to determine the percent of test article remaining at each time point. Half-lives and clearance were calculated using GraphPad software, fitting to a single-phase exponential decay equation.
Liver Microsomes 0.5 mg/mL
Potassium Phosphate, pH 7.4 100 mM

[2] = Stability and formation of treprostinil in human cryopreserved hepatocytes; details: both, human, pH 7.4
[3] = Stability and formation of treprostinil in human liver microsomes; details: both, pH 7.4
Method: as §1
Liver Microsomes 0.5 mg/mL
Potassium Phosphate, pH 7.4 100 mM

[4] = Stability and formation of treprostinil in dog cryopreserved hepatocytes; details: male, Beagle, dog, pH 7.4
[5] = Stability and formation of treprostinil in dog liver microsomes; details: male, Beagle, pH 7.4
Method: as §1
Liver Microsomes 0.5 mg/mL
Potassium Phosphate, pH 7.4 100 mM

[6] = Stability and formation of treprostinil in rat cryopreserved hepatocytes; details: male, Sprague-Dawley, rat, pH 7.4
[7] = cited from earlier work
[8] = target: T1, prostaglandin E2 (PGE2) receptor 2 (EP2) (Homo sapiens, UniProt P43116); assay: EP2 receptor cAMP assay (agonist mode); type: cell-based; details: Table 24; relative to treprostinil EC50 values; * partial agonists or ambiguous dose-response curves; image character = too high to realistically calculate
T1 construct: expressed in transfected cells; host or cells: HEK293T
T1 sequence (P43116 whole entry): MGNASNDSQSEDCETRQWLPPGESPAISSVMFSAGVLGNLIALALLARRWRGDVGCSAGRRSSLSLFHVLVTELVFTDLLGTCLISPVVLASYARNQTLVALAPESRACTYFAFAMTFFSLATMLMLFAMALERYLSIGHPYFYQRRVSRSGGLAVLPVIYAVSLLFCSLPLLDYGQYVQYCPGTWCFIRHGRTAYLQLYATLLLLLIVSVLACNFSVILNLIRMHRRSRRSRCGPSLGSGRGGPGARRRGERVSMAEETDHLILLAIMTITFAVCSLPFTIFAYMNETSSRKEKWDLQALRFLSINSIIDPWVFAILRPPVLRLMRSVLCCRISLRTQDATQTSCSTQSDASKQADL
Method: (§2) Gas Cyclic AMP (cAMP) Assay: In agonist mode testing, cells were seeded in a 384-well plate at an appropriate density and then were treated with compounds and incubated at 37° C. for 20 minutes. The reaction was terminated by sequentially adding sequentially adding trFluor™ Eu-labeled cAMP and trFluor™ 650-labeled anti-cAMP antibody in lysis buffer. […] All testing wells contained 0.1% DMSO in the final concentrations.
(§3) Data in graphs are represented in Mean±SD. Dose-dependent responses were fitted with sigmoidal dose-response curves allowing variable slopes using GraphPad Prism version 6 (Graphpad Prism).

[9] = target: T2, prostaglandin D2 (PGD2) receptor 1 (DP1) (Homo sapiens, UniProt Q13258); assay: DP1 receptor cAMP assay (agonist mode); type: cell-based; details: Table 24; relative to treprostinil EC50 values; * partial agonists or ambiguous dose-response curves; image character = too high to realistically calculate
T2 construct: expressed in transfected cells; host or cells: HEK293T
T2 sequence (Q13258 1-359): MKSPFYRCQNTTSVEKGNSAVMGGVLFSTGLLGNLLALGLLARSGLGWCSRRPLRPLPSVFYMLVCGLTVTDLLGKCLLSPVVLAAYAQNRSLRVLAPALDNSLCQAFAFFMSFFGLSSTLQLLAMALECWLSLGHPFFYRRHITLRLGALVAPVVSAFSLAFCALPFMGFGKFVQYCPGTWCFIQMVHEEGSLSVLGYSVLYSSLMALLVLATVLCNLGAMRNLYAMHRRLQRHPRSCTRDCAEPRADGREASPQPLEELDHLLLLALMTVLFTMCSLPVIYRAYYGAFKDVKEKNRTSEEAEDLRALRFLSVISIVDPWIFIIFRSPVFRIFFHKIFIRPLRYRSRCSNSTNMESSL

[10] = target: T3, PGE2 receptor 1 (EP1) (Homo sapiens, UniProt P34995); assay: EP1 receptor calcium assay (agonist mode); type: cell-based; details: Table 24; relative to treprostinil EC50 values; * partial agonists or ambiguous dose-response curves; image character = too high to realistically calculate
T3 construct: expressed in transfected cells; host or cells: HEK293T
T3 sequence (P34995 1-402): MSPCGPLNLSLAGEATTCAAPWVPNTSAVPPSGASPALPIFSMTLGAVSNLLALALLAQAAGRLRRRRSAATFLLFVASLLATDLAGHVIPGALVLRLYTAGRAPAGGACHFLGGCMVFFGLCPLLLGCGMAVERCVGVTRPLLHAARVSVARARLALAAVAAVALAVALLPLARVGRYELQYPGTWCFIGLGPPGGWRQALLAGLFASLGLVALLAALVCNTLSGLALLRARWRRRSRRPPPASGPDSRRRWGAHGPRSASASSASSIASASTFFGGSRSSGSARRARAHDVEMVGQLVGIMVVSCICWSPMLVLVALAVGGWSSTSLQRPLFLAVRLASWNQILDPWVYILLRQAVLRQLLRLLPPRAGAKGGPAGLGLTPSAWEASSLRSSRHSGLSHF
Method: Assay Buffer: • EP1 Calcium and DP1 cAMP Assays: HBSS plus 20 mM HEPES • EP2 and IP1 cAMP Assays: 1 mM IBMX in HBSS plus 20 mM HEPES
Cells were thawed from frozen cells and resuspended in assay buffer at desired concentrations. cAMP or Calcium assays were performed according to the manufacturer's protocol using Multiscreen™ TR-FRET cAMP 1.0 No Wash Assay Kit or Multiscreen™ Calcium 1.0 No Wash Kit.
Calcium Assay: Cells were seeded in a 384-well plate at an appropriate density. The calcium assay was conducted according to the manufacturer's protocols (Multiscreen Calcium 1.0 No Wash Assay Kit). The calcium dye loading buffer was added to the cells and incubated for 1 hour at 37° C. For agonist mode, cells were injected with Iloprost control agonist or test compound by FLIPR and calcium mobilization was monitored for 180 seconds with compound injected into the wells at the 19th second. Fluorescent emissions were read at 525 nm with excitation at 490 nm in a FLIPR 384 instrument (Molecular Devices).
Calcium Assay: Calcium assay results are expressed as “RFU” as defined in figure below. Data are represented in Mean±SEM. Dose-response curves were fitted using “Sigmoidal dose-response (variable slope)” function in GraphPad Prism 6. EC50 values were calculated based on the fitted curves.
Prostaglandin receptor activity assessments with treprostinil and treprostinil analogues have been conducted, and a historical, positive control agonist for these receptors, iloprost (for IP, EP2 and EP1) or PGD2 (for DP1), was also included. These studies used cell lines overexpressing either human IP, EP2 or DP1, or EP1 receptors, and following incubation with varying concentrations of compounds, cAMP levels were measured using Fluorescence Resonance Energy Transfer (FRET). The 665/620 (acceptor/donor emission signals) ratio is inversely proportional to the concentration of cAMP.

[11] = male, Beagle, dog, 1 μM, pH 7.4
Method: as §1
Liver Microsomes 0.5 mg/mL
Potassium Phosphate, pH 7.4 100 mM

[12] = both, human, 1 μM, pH 7.4
Method: as §1
Liver Microsomes 0.5 mg/mL
Potassium Phosphate, pH 7.4 100 mM

[13] = target: T4, prostaglandin I2 (PGI2) receptor (IP) (Homo sapiens, UniProt P43119); assay: IP receptor cAMP assay (agonist mode); type: cell-based; details: Table 24; relative to treprostinil EC50 values; * partial agonists or ambiguous dose-response curves; image character = too high to realistically calculate
T4 construct: expressed in transfected cells; host or cells: CHO-K1
T4 sequence (P43119 whole entry): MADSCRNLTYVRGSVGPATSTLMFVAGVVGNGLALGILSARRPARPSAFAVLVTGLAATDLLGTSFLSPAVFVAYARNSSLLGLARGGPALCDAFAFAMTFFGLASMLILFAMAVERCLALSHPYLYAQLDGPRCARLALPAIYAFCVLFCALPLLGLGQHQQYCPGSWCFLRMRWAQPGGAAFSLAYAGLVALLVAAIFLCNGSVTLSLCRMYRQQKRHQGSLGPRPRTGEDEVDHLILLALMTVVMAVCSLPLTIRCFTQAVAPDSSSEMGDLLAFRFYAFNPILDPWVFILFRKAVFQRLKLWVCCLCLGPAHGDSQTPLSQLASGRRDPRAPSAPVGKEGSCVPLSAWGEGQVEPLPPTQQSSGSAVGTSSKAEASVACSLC
Method: as §2, §3

[14] = human, 1 μM
Method: For each of the test articles, 495 μL of skin homogenate was added to triplicate centrifuge tubes. To each tube, 5 μL of a 100 μM solution of test article was added, for a final test article dosing concentration of 1 μM. The tubes were placed onto a Thermomixer and maintained at 37° C. with gentle shaking for the duration of the experiment. At each time point (0, 30, 60, and 120 minutes), a 100 μL aliquot was removed from each tube and combined with 200 μL of acetonitrile to stop the stability reaction. The tubes were mixed and centrifuged at 3000 rpm for 10 minutes. Aliquots of supernatant were removed and diluted 1:1 with distilled water containing internal standard (2 μM treprostinil-d4). Calibration standards for the treprostinil analysis were prepared for each test article in a surrogate matrix (supernatant from a mixture of 1:2 human plasma:acetonitrile), at concentrations ranging from 1 μM to 1 nM. Calibration standards were also diluted 1:1 with distilled water containing internal standard.

[15] = male, Sprague-Dawley, rat, 1 μM, pH 7.4
Method: as §1
Liver Microsomes 0.5 mg/mL
Potassium Phosphate, pH 7.4 100 mM

C[C@]12CC[C@H]3[C@@H](CCC4=CC(=O)CC[C@@]43C)[C@@H]1CC[C@@H]2O [Testosterone, testosterone]
Half-Life [1]: 1.71 min | microsomal CLint [1]: 809 µL/min/mg | hepatocyte CLint at 1 μM ([2]; hepatocytes): 95.9 µL/min/1e6 cells | Half-Life [3]: 29.2 min | microsomal CLint [3]: 47.5 µL/min/mg | half-life at 1 μM ([4]; hepatocytes): 6.5 min | Half-Life [5]: 37.7 min | microsomal CLint [5]: 36.8 µL/min/mg | hepatocyte CLint at 1 μM ([6]; hepatocytes): 448 µL/min/1e6 cells

CCCCC[C@H](O)CC[C@@H]1[C@H]2Cc3cccc(OCC(=O)O)c3C[C@H]2C[C@H]1O [treprostinil, Treprostinil]
First-pass effect ([7]; oral delivery, animal studies): approximately 60% | Half-life once absorbed ([7]; regardless of the route of administration): about 1 hour

CCCCC[C@@H](CC[C@@H]1[C@H]2Cc3cccc(OCC(=O)O)c3C[C@H]2C[C@H]1O)OC(C)=O [Prodrug XLIII, 2-(((1R,2R,3aS,9aS)-1-((S)-3-acetoxyoctyl)-2-hydroxy-2,3,3a,4,9,9a-hexahydro-1H-cyclopenta[b]naphthalen-5-yl)oxy)acetic acid]
Activity, EP2 Relative to Tre [8]: 461x | Treprostinil Concentration, 0 min ([2]; 0 min, 1 μM): 0.00744 µM | Treprostinil Concentration, 15 min ([2]; 15 min, 1 μM): 0.573 µM | Treprostinil Concentration, 30 min ([2]; 30 min, 1 μM): 0.623 µM | Treprostinil Concentration, 60 min ([2]; 60 min, 1 μM): 0.54 µM | Treprostinil Concentration, 120 min ([2]; 120 min, 1 μM): 0.507 µM | Activity, DP1 Relative to Tre [9]: 272x | Activity, EP1 Relative to Tre [10]: 20x* | Treprostinil Concentration, 0 min ([11]; 0 min): 0.964 µM | Treprostinil Concentration, 15 min ([11]; 15 min): 0.917 µM | Treprostinil Concentration, 30 min ([11]; 30 min): 0.899 µM | Treprostinil Concentration, 60 min ([11]; 60 min): 0.932 µM | Treprostinil Concentration, 120 min ([11]; 120 min): 0.873 µM | Treprostinil Concentration, 0 min ([12]; 0 min): 0.883 µM | Treprostinil Concentration, 15 min ([12]; 15 min): 0.681 µM | Treprostinil Concentration, 30 min ([12]; 30 min): 0.602 µM | Treprostinil Concentration, 60 min ([12]; 60 min): 0.513 µM | Treprostinil Concentration, 120 min ([12]; 120 min): 0.341 µM | Activity, IP Relative to Tre [13]: 632x | Treprostinil Concentration, 0 min ([4]; 0 min, 1 μM): 0.0381 µM | Treprostinil Concentration, 15 min ([4]; 15 min, 1 μM): 0.628 µM | Treprostinil Concentration, 30 min ([4]; 30 min, 1 μM): 0.543 µM | Treprostinil Concentration, 60 min ([4]; 60 min, 1 μM): 0.446 µM | Treprostinil Concentration, 120 min ([4]; 120 min, 1 μM): 0.4 µM | Treprostinil Concentration, 0 min ([6]; 0 min, 1 μM): 0.00292 µM | Treprostinil Concentration, 15 min ([6]; 15 min, 1 μM): 0.161 µM | Treprostinil Concentration, 30 min ([6]; 30 min, 1 μM): 0.266 µM | Treprostinil Concentration, 60 min ([6]; 60 min, 1 μM): 0.397 µM | Treprostinil Concentration, 120 min ([6]; 120 min, 1 μM): 0.503 µM | Treprostinil Concentration, 0 min ([14]; 0 min): 0.0034 µM | Treprostinil Concentration, 30 min ([14]; 30 min): 0.382 µM | Treprostinil Concentration, 60 min ([14]; 60 min): 0.583 µM | Treprostinil Concentration, 120 min ([14]; 120 min): 0.839 µM | Treprostinil Concentration, 0 min ([15]; 0 min): 0.035 µM | Treprostinil Concentration, 15 min ([15]; 15 min): 0.0741 µM | Treprostinil Concentration, 30 min ([15]; 30 min): 0.111 µM | Treprostinil Concentration, 60 min ([15]; 60 min): 0.145 µM | Treprostinil Concentration, 120 min ([15]; 120 min): 0.206 µM
